Experimental data taken from paper PMC5218480 (PLoS ONE, 2017).

Tested on: MV-4-11 cells
Assay: Gene expression microarray analysis (Affymetrix PrimeView) and GSEA
Type: cell-based, human
Set-up: RFU PODN (11730768_x_at) / Fold change /veh PODN (11730768_x_at) / RFU LINC00158 (11744669_a_at) / Fold change /veh LINC00158 (11744669_a_at) / RFU DUSP10 (11751237_a_at) / Fold change /veh DUSP10 (11751237_a_at) / RFU ID3 (11757404_x_at) / Fold change /veh ID3 (11757404_x_at) / RFU PLEKHG5 (11737974_s_at) / Fold change /veh PLEKHG5 (11737974_s_at) / RFU LRRC4B (11730491_at) / Fold change /veh LRRC4B (11730491_at) / RFU GIMAP4 (11747438_a_at) / Fold change /veh GIMAP4 (11747438_a_at) / RFU KRT8 (11758183_x_at) / Fold change /veh KRT8 (11758183_x_at) / RFU CNN1 (11734310_a_at) / Fold change /veh CNN1 (11734310_a_at) / RFU VPS37D (11726825_at) / Fold change /veh VPS37D (11726825_at) / RFU C10orf10 (11716522_x_at) / Fold change /veh C10orf10 (11716522_x_at) / RFU KIR2DL2 /// KIR2DL4 /// KIR2DL5A /// KIR2DL5B /// KIR2DS1 /// KIR2DS2 /// KIR2DS3 /// KIR2DS4 /// KIR3DL3 /// KIR3DL3 /// KIR3DS1 (11738374_at) / Fold change /veh KIR2DL2 /// KIR2DL4 /// KIR2DL5A /// KIR2DL5B /// KIR2DS1 /// KIR2DS2 /// KIR2DS3 /// KIR2DS4 /// KIR3DL3 /// KIR3DL3 /// KIR3DS1 (11738374_at) / RFU C1QL1 (11718748_at) / Fold change /veh C1QL1 (11718748_at) / RFU TMPRSS4 (11747572_a_at) / Fold change /veh TMPRSS4 (11747572_a_at) / RFU HAMP (11756126_x_at) / Fold change /veh HAMP (11756126_x_at) / RFU RNFT2 (11725882_a_at) / Fold change /veh RNFT2 (11725882_a_at) / RFU NR4A2 (11747474_a_at) / Fold change /veh NR4A2 (11747474_a_at) / RFU ABCC12 (11746883_a_at) / Fold change /veh ABCC12 (11746883_a_at) / RFU TMEM136 (11760407_x_at) / Fold change /veh TMEM136 (11760407_x_at) / RFU CLDN22 /// WWC2 (11732394_at) / Fold change /veh CLDN22 /// WWC2 (11732394_at) / RFU HLA-DPB1 (11760878_x_at) / Fold change /veh HLA-DPB1 (11760878_x_at) / RFU SPINT1 (11716480_a_at) / Fold change /veh SPINT1 (11716480_a_at) / RFU GAP43 (11754022_s_at) / Fold change /veh GAP43 (11754022_s_at) / RFU A4GNT (11735810_at) / Fold change /veh A4GNT (11735810_at) / RFU PRB3 (11715151_x_at) / Fold change /veh PRB3 (11715151_x_at) / RFU TUBB4B (11761932_at) / Fold change /veh TUBB4B (11761932_at) / RFU CAPN14 (11732068_a_at) / Fold change /veh CAPN14 (11732068_a_at) / RFU TMCC2 (11721928_a_at) / Fold change /veh TMCC2 (11721928_a_at) / RFU IRGQ (11745062_a_at) / Fold change /veh IRGQ (11745062_a_at) / RFU FAM174B (11720279_a_at) / Fold change /veh FAM174B (11720279_a_at) / RFU TMPRSS4 (11748680_a_at) / Fold change /veh TMPRSS4 (11748680_a_at) / RFU FAM212B (11763350_a_at) / Fold change /veh FAM212B (11763350_a_at) / RFU PLEKHG5 (11743358_a_at) / Fold change /veh PLEKHG5 (11743358_a_at) / RFU ZSCAN30 (11745921_a_at) / Fold change /veh ZSCAN30 (11745921_a_at) / RFU CMKLR1 (11741424_a_at) / Fold change /veh CMKLR1 (11741424_a_at) / RFU LOC101060620 /// MAPK8IP1 (11723275_at) / Fold change /veh LOC101060620 /// MAPK8IP1 (11723275_at) / RFU SPTSSB (11747773_x_at) / Fold change /veh SPTSSB (11747773_x_at) / RFU PRSS12 (11739890_at) / Fold change /veh PRSS12 (11739890_at) / RFU BIN1 (11741810_x_at) / Fold change /veh BIN1 (11741810_x_at) / RFU WNT11 (11732464_a_at) / Fold change /veh WNT11 (11732464_a_at) / RFU C10orf10 (11716521_a_at) / Fold change /veh C10orf10 (11716521_a_at) / RFU C5orf56 (11738089_at) / Fold change /veh C5orf56 (11738089_at) / RFU CYB561 (11721691_x_at) / Fold change /veh CYB561 (11721691_x_at) / RFU ANKRD19P (11752326_a_at) / Fold change /veh ANKRD19P (11752326_a_at) / RFU OR2T12 /// OR2T33 /// OR2T8 (11738714_s_at) / Fold change /veh OR2T12 /// OR2T33 /// OR2T8 (11738714_s_at) / RFU VCAN (11748164_a_at) / Fold change /veh VCAN (11748164_a_at) / RFU JSRP1 (11732532_at) / Fold change /veh JSRP1 (11732532_at) / RFU KRTAP10-11 (11738290_x_at) / Fold change /veh KRTAP10-11 (11738290_x_at) / RFU MYO3A (11730013_a_at) / Fold change /veh MYO3A (11730013_a_at) / RFU EBF3 (11725865_a_at) / Fold change /veh EBF3 (11725865_a_at) / RFU CAMK2N1 (11719241_x_at) / Fold change /veh CAMK2N1 (11719241_x_at) / RFU C5orf56 (11738088_a_at) / Fold change /veh C5orf56 (11738088_a_at) / RFU OLFML3 (11715873_a_at) / Fold change /veh OLFML3 (11715873_a_at) / RFU LOC100653217 /// NTM (11731650_a_at) / Fold change /veh LOC100653217 /// NTM (11731650_a_at) / RFU MAPK11 (11762145_a_at) / Fold change /veh MAPK11 (11762145_a_at) / RFU FIZ1 (11724087_x_at) / Fold change /veh FIZ1 (11724087_x_at) / RFU OASL (11726364_x_at) / Fold change /veh OASL (11726364_x_at) / RFU SOX15 (11748057_x_at) / Fold change /veh SOX15 (11748057_x_at) / RFU CD79A (11719716_a_at) / Fold change /veh CD79A (11719716_a_at) / RFU HIST1H1D (11736915_at) / Fold change /veh HIST1H1D (11736915_at) / RFU CASKIN2 (11723855_a_at) / Fold change /veh CASKIN2 (11723855_a_at) / RFU LOC730098 (11760151_x_at) / Fold change /veh LOC730098 (11760151_x_at) / RFU OR4N2 (11742367_at) / Fold change /veh OR4N2 (11742367_at) / RFU PRRT2 (11749266_a_at) / Fold change /veh PRRT2 (11749266_a_at) / RFU SNX32 (11753110_a_at) / Fold change /veh SNX32 (11753110_a_at) / RFU CDHR5 (11726645_a_at) / Fold change /veh CDHR5 (11726645_a_at) / RFU RCAN1 (11760418_a_at) / Fold change /veh RCAN1 (11760418_a_at) / RFU FAM167A (11723789_a_at) / Fold change /veh FAM167A (11723789_a_at) / RFU FAM26E (11764081_at) / Fold change /veh FAM26E (11764081_at) / RFU ISYNA1 (11749810_s_at) / Fold change /veh ISYNA1 (11749810_s_at) / RFU ACY1 (11761880_at) / Fold change /veh ACY1 (11761880_at) / RFU 11764098_at / Fold change /veh 11764098_at / RFU SAMD14 (11745864_x_at) / Fold change /veh SAMD14 (11745864_x_at) / RFU NPB (11741838_a_at) / Fold change /veh NPB (11741838_a_at) / RFU TMPRSS6 (11731388_a_at) / Fold change /veh TMPRSS6 (11731388_a_at) / RFU KRTAP10-2 (11738614_at) / Fold change /veh KRTAP10-2 (11738614_at) / RFU ARHGAP8 /// PRR5-ARHGAP8 (11727945_x_at) / Fold change /veh ARHGAP8 /// PRR5-ARHGAP8 (11727945_x_at) / RFU KRTAP5-7 /// NADSYN1 (11734609_at) / Fold change /veh KRTAP5-7 /// NADSYN1 (11734609_at) / RFU RASL12 (11751679_a_at) / Fold change /veh RASL12 (11751679_a_at) / RFU CDKN2B (11736163_a_at) / Fold change /veh CDKN2B (11736163_a_at) / RFU PRF1 (11729649_at) / Fold change /veh PRF1 (11729649_at) / RFU, ZNF638 /// ZNF638-IT1 / Fold change vs veh, ZNF638 /// ZNF638-IT1 / RFU, PANK3 / Fold change vs veh, PANK3 / RFU, SH3YL1 / Fold change vs veh, SH3YL1 / RFU, ZEB2 / Fold change vs veh, ZEB2 / RFU, NRIP1 / Fold change vs veh, NRIP1 / RFU, PTTG1IP / Fold change vs veh, PTTG1IP / RFU, CAPN2 / Fold change vs veh, CAPN2 / RFU, MED14 / Fold change vs veh, MED14 / RFU, SNORA58 / Fold change vs veh, SNORA58 / RFU, C1orf63 / Fold change vs veh, C1orf63 / RFU, LRRFIP1 / Fold change vs veh, LRRFIP1 / RFU, NDUFAF7 / Fold change vs veh, NDUFAF7 / RFU, SLC12A2 / Fold change vs veh, SLC12A2 / RFU, IBTK / Fold change vs veh, IBTK / RFU, ESF1 / Fold change vs veh, ESF1 / Fold change vs veh, TMEM50B / RFU, TAOK1 / Fold change vs veh, TAOK1 / RFU, ACBD3 / Fold change vs veh, ACBD3 / RFU, TMA16 / Fold change vs veh, TMA16 / RFU, RWDD3 / Fold change vs veh, RWDD3 / RFU, BCAT1 / Fold change vs veh, BCAT1 / RFU, EDEM3 / Fold change vs veh, EDEM3 / RFU, TMEM33 / Fold change vs veh, TMEM33 / RFU, WDR75 / Fold change vs veh, WDR75 / RFU, AHCTF1 / Fold change vs veh, AHCTF1 / RFU, TFRC / Fold change vs veh, TFRC / RFU, ZDHHC17 / Fold change vs veh, ZDHHC17 / RFU, NOM1 / Fold change vs veh, NOM1 / RFU, ARL8B / Fold change vs veh, ARL8B / RFU, ZBTB11 / Fold change vs veh, ZBTB11 / RFU, TAMM41 / Fold change vs veh, TAMM41 / RFU, KIAA1704 /// LOC100996395 / Fold change vs veh, KIAA1704 /// LOC100996395 / RFU, ING1 / Fold change vs veh, ING1 / RFU, TRMT61B / Fold change vs veh, TRMT61B / RFU, FUBP3 / Fold change vs veh, FUBP3 / RFU, TP53 / Fold change vs veh, TP53 / RFU, TNKS2 / Fold change vs veh, TNKS2 / RFU, ZFP14 / Fold change vs veh, ZFP14 / RFU, ACTR2 / Fold change vs veh, ACTR2 / RFU, PPP3R1 / Fold change vs veh, PPP3R1 / RFU, PIK3R1 / Fold change vs veh, PIK3R1 / RFU, HNRNPA1 / Fold change vs veh, HNRNPA1 / RFU, RNF170 / Fold change vs veh, RNF170 / RFU, ZNF28 / Fold change vs veh, ZNF28 / RFU, RNGTT / Fold change vs veh, RNGTT / RFU, OGT / Fold change vs veh, OGT / RFU, BRD1 / Fold change vs veh, BRD1 / RFU, MARS / Fold change vs veh, MARS / RFU, ZNF655 / Fold change vs veh, ZNF655 / RFU, FAHD1 / Fold change vs veh, FAHD1 / RFU, BDP1 / Fold change vs veh, BDP1 / RFU, LRRCC1 / Fold change vs veh, LRRCC1 / RFU, ARID1A / Fold change vs veh, ARID1A / RFU, ZNF146 / Fold change vs veh, ZNF146 / RFU, ZNF330 / Fold change vs veh, ZNF330 / RFU, GPN3 / Fold change vs veh, GPN3 / RFU, C9orf123 / Fold change vs veh, C9orf123 / RFU, N4BP2L2 / Fold change vs veh, N4BP2L2 / RFU, ARFIP1 / Fold change vs veh, ARFIP1 / RFU, FAM179B / Fold change vs veh, FAM179B / RFU, BCL10 / Fold change vs veh, BCL10 / RFU, UHRF1BP1L / Fold change vs veh, UHRF1BP1L / RFU, BET1 / Fold change vs veh, BET1 / RFU, CNOT2 / Fold change vs veh, CNOT2 / RFU, ZNF268 / Fold change vs veh, ZNF268 / Fold change vs veh, ZNF507 / RFU, DGCR2 / Fold change vs veh, DGCR2 / RFU, WDSUB1 / Fold change vs veh, WDSUB1 / Fold change vs veh, HSP90B1 /// MIR3652 / RFU, ADSS / Fold change vs veh, ADSS / RFU, GK / Fold change vs veh, GK / RFU, ZNF148 / Fold change vs veh, ZNF148 / RFU, TAF9 / Fold change vs veh, TAF9 / RFU, SLC1A5 / Fold change vs veh, SLC1A5 / RFU, SLMO2 / Fold change vs veh, SLMO2 / RFU, ABCC4 / Fold change vs veh, ABCC4 / RFU, LOC101060439 /// RAP1B / Fold change vs veh, LOC101060439 /// RAP1B / RFU, RFX7 / Fold change vs veh, RFX7 / RFU, GTPBP10 / Fold change vs veh, GTPBP10 / RFU, CNEP1R1 / Fold change vs veh, CNEP1R1 / RFU, BIVM-ERCC5 /// ERCC5 / Fold change vs veh, BIVM-ERCC5 /// ERCC5 / RFU, ILF3 / Fold change vs veh, ILF3 / RFU 11762660_at / Fold change /veh 11762660_at / RFU VCAN (11757783_s_at) / Fold change /veh VCAN (11757783_s_at) / RFU DDX43 (11728927_at) / Fold change /veh DDX43 (11728927_at) / RFU KRT8 (11758188_x_at) / Fold change /veh KRT8 (11758188_x_at) / RFU NKD1 (11759106_at) / Fold change /veh NKD1 (11759106_at) / RFU SRD5A1 (11742802_a_at) / Fold change /veh SRD5A1 (11742802_a_at) / RFU TPSAB1 /// TPSB2 (11721975_s_at) / Fold change /veh TPSAB1 /// TPSB2 (11721975_s_at) / RFU GSTM3 (11746129_a_at) / Fold change /veh GSTM3 (11746129_a_at) / RFU IL23R (11737362_x_at) / Fold change /veh IL23R (11737362_x_at) / RFU TMEM51 (11727254_a_at) / Fold change /veh TMEM51 (11727254_a_at) / RFU PIWIL2 (11732686_x_at) / Fold change /veh PIWIL2 (11732686_x_at) / RFU ORM1 (11744905_x_at) / Fold change /veh ORM1 (11744905_x_at) / RFU CCDC152 (11743942_at) / Fold change /veh CCDC152 (11743942_at) / RFU ECM1 (11717891_a_at) / Fold change /veh ECM1 (11717891_a_at) / RFU IL23R (11748794_a_at) / Fold change /veh IL23R (11748794_a_at) / RFU TNFAIP8L3 (11732012_x_at) / Fold change /veh TNFAIP8L3 (11732012_x_at) / RFU MBOAT4 (11741988_at) / Fold change /veh MBOAT4 (11741988_at) / RFU 11764193_at / Fold change /veh 11764193_at / RFU TMEM53 (11763286_at) / Fold change /veh TMEM53 (11763286_at) / RFU MAGEB2 (11727129_at) / Fold change /veh MAGEB2 (11727129_at) / RFU TMEM200A (11744735_a_at) / Fold change /veh TMEM200A (11744735_a_at) / RFU CCDC152 (11751479_a_at) / Fold change /veh CCDC152 (11751479_a_at) / RFU FAM211A (11726209_a_at) / Fold change /veh FAM211A (11726209_a_at) / RFU RGS16 (11746705_a_at) / Fold change /veh RGS16 (11746705_a_at) / RFU VCAN (11755009_s_at) / Fold change /veh VCAN (11755009_s_at) / RFU RHOB (11743442_s_at) / Fold change /veh RHOB (11743442_s_at) / RFU RGS16 (11720943_a_at) / Fold change /veh RGS16 (11720943_a_at) / RFU RGS16 (11720944_at) / Fold change /veh RGS16 (11720944_at) / RFU, VPS4B / Fold change vs veh, VPS4B / RFU, CREB1 / Fold change vs veh, CREB1 / RFU, DNAJC13 / Fold change vs veh, DNAJC13 / RFU, GNAQ / Fold change vs veh, GNAQ / RFU, CDK5R1 / Fold change vs veh, CDK5R1 / RFU, ZRANB3 / Fold change vs veh, ZRANB3 / RFU, CUL4A / Fold change vs veh, CUL4A / RFU, CCNY / Fold change vs veh, CCNY / RFU, UFL1 / Fold change vs veh, UFL1 / RFU, COG3 / Fold change vs veh, COG3 / RFU, DIAPH2 / Fold change vs veh, DIAPH2 / RFU, SKA2 / Fold change vs veh, SKA2 / RFU, AFF3 / Fold change vs veh, AFF3 / RFU, LMF1 / Fold change vs veh, LMF1 / RFU, IPO11 / Fold change vs veh, IPO11 / RFU, DFFB / Fold change vs veh, DFFB / RFU, FOXP1 / Fold change vs veh, FOXP1 / RFU, CARD8 / Fold change vs veh, CARD8 / RFU, STRN3 / Fold change vs veh, STRN3 / RFU, ADK / Fold change vs veh, ADK / RFU, RASSF2 / Fold change vs veh, RASSF2 / RFU, WIPF1 / Fold change vs veh, WIPF1 / RFU, LARP1B / Fold change vs veh, LARP1B / RFU, RASA1 / Fold change vs veh, RASA1 / RFU, RB1 / Fold change vs veh, RB1 / RFU, PPFIA1 / Fold change vs veh, PPFIA1 / RFU, MAT2A / Fold change vs veh, MAT2A / RFU, CCT5 / Fold change vs veh, CCT5 / RFU, WDR92 / Fold change vs veh, WDR92 / RFU, CUX1 / Fold change vs veh, CUX1 / RFU, TTC7A / Fold change vs veh, TTC7A / RFU, TMEM135 / Fold change vs veh, TMEM135 / RFU, DEPTOR / Fold change vs veh, DEPTOR / RFU, CPM / Fold change vs veh, CPM / RFU, DNAJB6 / Fold change vs veh, DNAJB6 / RFU, CACNA2D3 / Fold change vs veh, CACNA2D3 / RFU, DTX4 / Fold change vs veh, DTX4 / RFU, TFCP2 / Fold change vs veh, TFCP2 / RFU, GMCL1 /// GMCL1P1 / Fold change vs veh, GMCL1 /// GMCL1P1 / RFU, AEBP2 / Fold change vs veh, AEBP2 / RFU, SNHG1 /// SNORD22 /// SNORD25 /// SNORD26 /// SNORD27 /// SNORD28 /// SNORD29 /// SNORD31 / Fold change vs veh, SNHG1 /// SNORD22 /// SNORD25 /// SNORD26 /// SNORD27 /// SNORD28 /// SNORD29 /// SNORD31 / Fold change (Aza/veh), C12orf56 (ProbeSet 11735607_a_at) / Fold change (ACY-1035/veh), C12orf56 (ProbeSet 11735607_a_at) / Fold change (Aza/veh), FGFR1OP (ProbeSet 11751329_s_at) / Fold change (ACY-1035/veh), FGFR1OP (ProbeSet 11751329_s_at) / Fold change (Aza/veh), VPS36 (ProbeSet 11739960_a_at) / Fold change (ACY-1035/veh), VPS36 (ProbeSet 11739960_a_at) / RFU SYPL1 (11715823_x_at) / Fold change /veh SYPL1 (11715823_x_at) / RFU IGFBP7 (11715501_s_at) / Fold change /veh IGFBP7 (11715501_s_at) / RFU REEP3 (11722064_at) / Fold change /veh REEP3 (11722064_at) / RFU IGLL1 (11728026_x_at) / Fold change /veh IGLL1 (11728026_x_at): dose or concentration left out as unconfirmed
Conditions: ProbeSet 11731610_x_at; LIST B

SMILES: Nc1ccc(-c2cccs2)cc1NC(=O)c1ccc2c(c1)cc(C1CC1)n2CCN1CCOCC1 [ACY-1035]
- RFU, KIAA1704 /// LOC100996395: 79.91 RFU
